Measurements: patent US7405240B2, “Substituted cyclopentanes or cyclopentanones as therapeutic agents” (Allergan, Inc., priority 2006, dated 2008)

Tests used:
[1] = biological target: T1, hEP2 (Homo sapiens, UniProt P43116); assay: cAMP assay, hEP2; type: cell-based
[2] = biological target: T1, hEP2; assay: Competition binding, [3H]PGE2, human EP2 receptors; design: expressed in transfected cells; host or cells: HEK 293; conditions: [3H]PGE2, HEK 293 cells stably expressing human EP2; read-out: hEP2 Ki
Experimental: Competition binding experiments were performed in a medium containing Hank's balanced salt solution, Hepes 20 mM, pH 7.3, membranes (˜60 μg protein) or 2×10^5 cells from HEK 293 cells stably expressing human EP2 receptors, [^3H]PGE2 (10 nM) and various concentrations of test compounds in a total volume of 300 μl. Reaction mixtures were incubated at 23° C. for 60 min, and were filtered over Whatman GF/B filters under vacuum. Filters were washed three times with 5 ml ice-cold buffer containing 50 mM Tris/HCl (pH 7.3). Non-specific binding was estimated in the presence of excess unlabeled PGE2 (10 μM). Binding data fitted to the binding model for a single class of binding sites, using nonlinear regression analysis. IC50 values thus obtained were converted to Ki using the equation of Ki=(IC50/(1+[L]/KD) where [L] represents PGE2 concentration (10 nM) and KD the dissociation constant for [^3H]PGE2 at human EP2 receptors (40 nM).
(§1) HEK-293 cells stably expressing the human or feline FP receptor, or EP1, EP2, or EP4 receptors were washed with TME buffer, scraped from the bottom of the flasks, and homogenized for 30 sec using a Brinkman PT 10/35 polytron. TME buffer was added to achieve a final 40 ml volume in the centrifuge tubes (the composition of TME is 100 mM TRIS base, 20 mM MgCl2, […]; 10N HCl is added to achieve a pH of 7.4).
(§2) The cell homogenate was centrifuged at 19000 r.p.m. for 20 min at 4° C. using a Beckman Ti-60 rotor. The resultant pellet was resuspended in TME buffer to give a final 1 mg/ml protein concentration, as determined by Biorad assay. Radioligand binding competition assays vs. [3H-] 17-phenyl PGF2, (5 nM) were performed in a 100 μl volume for 60 min. Binding reactions were started by adding plasma membrane fraction. The reaction was terminated by the addition of 4 ml ice-cold TRIS-HCl buffer and rapid filtration through glass fiber GF/B filters using a Brandel cell harvester. The filters were washed 3 times with ice-cold buffer and oven dried for one hour.
(§3) [^3H-] PGE2 (specific activity 180 Ci mmol) was used as the radioligand for EP receptors. [^3H] 17-phenyl PGF2, was employed for FP receptor binding studies. Binding studies employing EP1, EP2, EP4 and FP receptors were performed in duplicate in at least three separate experiments. A […] assay volume was used. Incubations were for 60 min at 25° C. and were terminated by the addition of 4 ml of ice-cold 50 mM TRIS-HCl, followed by rapid filtration through Whatman GF/B filters and three additional 4 ml washes in a cell harvester (Brandel). Competition studies were performed using a final concentration of 5 nM [^3H]-PGE2, or 5 nM [^3H] 17-phenyl PGF2, and non-specific binding determined with 10^−5M of unlabeled PGE2, or 17-phenyl PGF2α, according to receptor subtype studied.

[3] = biological target: T2, hEP4 (Homo sapiens, UniProt P35408); assay: Radioligand binding, EP4 receptor; design: expressed in transfected cells; host or cells: HEK-293; conditions: [3H]PGE2, HEK-293 cells expressing EP4
Experimental: as §1, §2, §3

[4] = biological target: T1, hEP2; assay: FLIPR calcium signal, hEP2; type: cell-based; design: expressed in transfected cells; host or cells: HEK-293(EBNA); conditions: HEK-293(EBNA) cells expressing hEP2/Gqs5
Experimental: (§4) Methods for FLIPR™ Studies
(§5) HEK-293(EBNA) cells, stably expressing one type or subtype of recombinant human prostaglandin receptors (prostaglandin receptors expressed: hDP/Gqs5; hEP1; hEP2/Gqs5; hEP3A/Gqi5; hEP4/Gqs5; hFP; hIP; hTP), were cultured in 100 mm culture dishes in high-glucose DMEM medium containing 10% fetal bovine serum, 2 mM 1-glutamine, 250 μg/ml geneticin (G418) and 200 μg/ml hygromycin B as selection markers, and 100 units/ml penicillin G, 100 μg/ml streptomycin and 0.25 μg/ml amphotericin B.
(§6) Cells were seeded at a density of 5×10^4 cells per well in Biocoat® Poly-D-lysine-coated black-wall, clear-bottom 96-well plates (Becton-Dickinson) and allowed to attach overnight in an incubator at 37° C. Cells were then washed two times with HBSS-HEPES buffer (Hanks Balanced Salt Solution without bicarbonate and phenol red, 20 mM HEPES, pH 7.4) using a Denley Cellwash plate washer (Labsystems). After 45 minutes of dye-loading in the dark, using the calcium-sensitive dye Fluo-4 AM at a final concentration of 2 μM, plates were washed four times with HBSS-HEPES buffer to remove excess dye leaving 100 μl in each well. Plates were re-equilibrated to 37° C. for a few minutes.
(§7) Cells were excited with an Argon laser at 488 nm, and emission was measured through a 510-570 nm bandwidth emission filter (FLIPR™, Molecular Devices, Sunnyvale, Calif.). Drug solution was added in a 50 μl volume to each well to give the desired final concentration. The peak increase in fluorescence intensity was recorded for each well. On each plate, four wells each served as negative (HBSS-HEPES buffer) and positive controls (standard agonists: BW245C (hDP); PGE2 (hEP1; hEP2/Gqs5; hEP3A/Gqi5; hEP4/Gqs5); PGF2α (hFP); carbacyclin (hIP); U-46619 (hTP), depending on receptor). The peak fluorescence change in each drug-containing well was then expressed relative to the controls.
(§8) Compounds were tested in a high-throughput (HTS) or concentration-response (CoRe) format. In the HTS format, forty-four compounds per plate were examined in duplicates at a concentration of 10^−5 M. To generate concentration-response curves, four compounds per plate were tested in duplicates in a concentration range between 10^−5 and 10^−11 M. The duplicate values were averaged. In either, HTS or CoRe format each compound was tested on at least 3 separate plates using cells from different passages to give an n≧3.

[5] = biological target: T2, hEP4; assay: FLIPR calcium signal, hEP4; type: cell-based; design: expressed in transfected cells; host or cells: HEK-293(EBNA); conditions: HEK-293(EBNA) cells expressing hEP4/Gqs5
Experimental: as §4, §5, §6, §7, §8

T2 sequence (P35408 whole entry): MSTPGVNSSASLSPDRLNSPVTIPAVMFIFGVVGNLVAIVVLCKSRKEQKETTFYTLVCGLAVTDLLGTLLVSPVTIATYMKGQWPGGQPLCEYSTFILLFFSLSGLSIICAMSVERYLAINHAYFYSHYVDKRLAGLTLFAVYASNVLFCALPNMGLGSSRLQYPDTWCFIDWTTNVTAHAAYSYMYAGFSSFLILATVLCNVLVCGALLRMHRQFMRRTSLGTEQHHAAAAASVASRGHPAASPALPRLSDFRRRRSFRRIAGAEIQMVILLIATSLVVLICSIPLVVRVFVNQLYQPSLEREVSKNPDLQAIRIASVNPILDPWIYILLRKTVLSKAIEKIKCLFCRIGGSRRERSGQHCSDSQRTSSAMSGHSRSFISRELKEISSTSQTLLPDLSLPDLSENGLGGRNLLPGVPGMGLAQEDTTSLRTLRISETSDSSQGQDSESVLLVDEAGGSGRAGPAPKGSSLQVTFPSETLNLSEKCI
T1 sequence (P43116 whole entry): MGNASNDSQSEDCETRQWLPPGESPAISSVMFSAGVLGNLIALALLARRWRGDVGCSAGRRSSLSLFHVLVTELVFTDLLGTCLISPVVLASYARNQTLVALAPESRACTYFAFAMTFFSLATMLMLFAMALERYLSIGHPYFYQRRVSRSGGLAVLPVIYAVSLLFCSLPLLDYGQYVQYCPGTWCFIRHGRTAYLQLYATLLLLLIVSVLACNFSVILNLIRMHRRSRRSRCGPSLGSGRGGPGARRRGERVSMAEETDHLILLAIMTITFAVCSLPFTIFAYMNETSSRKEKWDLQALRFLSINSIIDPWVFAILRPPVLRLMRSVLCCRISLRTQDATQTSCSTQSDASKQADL

| SMILES | EC50 [1] [nM] | Ki [2] [nM] | Ki [3] [nM] | EC50 [4] [nM] | EC50 [5] [µM] |
| --- | --- | --- | --- | --- | --- |
| Cc1cccc(C)c1OC[C@@H]1[C@@H](C/C=C\CCCC(=O)O)[C@H](Cl)C[C@H]1O [Example 35, (Z)-7-[(1R,2S,3R,5R)-5-Chloro-2-(2,6-dimethyl-phenoxymethyl)-3-hydroxy-cyclopentyl]-hept-5-enoic acid] | 3350 | 4320 | > 10000 | 5580 | > 10 |
| O=C(O)CCC/C=C\C[C@@H]1[C@@H](COc2cc(C(F)(F)F)cc(Cl)c2F)[C@H](O)C[C@H]1Cl [Example 41, (Z)-7-[(1R,2S,3R,5R)-5-Chloro-2-(3-chloro-2-fluoro-5-trifluoromethyl-phenoxymethyl)-3-hydroxy-cyclopentyl]-hept-5-enoic acid] | 1.3 | 16 | 1710 | 13 | > 10 |
| Cc1cccc(OC[C@@H]2[C@@H](C/C=C\CCCC(=O)O)[C@H](Cl)C[C@H]2O)c1 [Example 25, (Z)-7-((1R,2S,3R,5R)-5-Chloro-3-hydroxy-2-m-tolyloxymethyl-cyclopentyl)-hept-5-enoic acid] | 9 | 155 | 1840 | 112 | 13 |
| O=C(O)CCC/C=C\C[C@@H]1[C@@H](COc2ccc(Cl)c3ccccc23)[C@H](O)C[C@H]1Cl [Example 40, (Z)-7-[(1R,2S,3R,5R)-5-Chloro-2-(4-chloro-naphthalen-1-yloxymethyl)-3-hydroxy-cyclopentyl]-hept-5-enoic acid] | 0.7 | 2 | 491 | 29 | 5.89 |
| O=C(O)CCC/C=C\C[C@@H]1[C@@H](COc2ccccc2CO)[C@H](O)C[C@H]1Cl [Example 55, (Z)-7-[(1R,2S,3R,5R)-5-Chloro-3-hydroxy-2-(2-hydroxymethyl-phenoxymethyl)-cyclopentyl]-hept-5-enoic acid] | 225 | 4120 | 1520 | 9490 | 12.3 |
| O=C(O)CCC/C=C\C[C@@H]1[C@@H](COc2ccc(Cl)cc2)[C@H](O)C[C@H]1Cl [Example 23, (Z)-7-[(1R,2S,3R,5R)-5-Chloro-2-(4-chloro-phenoxymethyl)-3-hydroxy-cyclopentyl]-hept-5-enoic acid] | 10 | 32 | 3220 | 45 | 2.86 |
| Cc1ccc(OC[C@@H]2[C@@H](C/C=C\CCCC(=O)O)[C@H](Cl)C[C@H]2O)c(C)c1 [Example 33, (Z)-7-[(1R,2S,3R,5R)-5-Chloro-2-(2,4-dimethyl-phenoxymethyl)-3-hydroxy-cyclopentyl]-hept-5-enoic acid] | 72 | 620 | – | 277 | 7.25 |
| O=C(O)CCC/C=C\C[C@@H]1[C@@H](COc2cccc(CCO)c2)[C@H](O)C[C@H]1Cl [Example 62, (Z)-7-{(1R,2S,3R,5R)-5-Chloro-3-hydroxy-2-[3-(2-hydroxy-ethyl)-phenoxymethyl]-cyclopentyl}-hept-5-enoic acid] | 18 | 161 | – | 1970 | > 10 |
| O=C(O)CCC/C=C\C[C@@H]1[C@@H](COc2ccc(CCO)cc2)[C@H](O)C[C@H]1Cl [Example 63, (Z)-7-{(1R,2S,3R,5R)-5-Chloro-3-hydroxy-2-[4-(2-hydroxy-ethyl)-phenoxymethyl]-cyclopentyl}-hept-5-enoic acid] | – | 1990 | – | > 10000 | > 10 |
| O=C(O)CCC/C=C\C[C@@H]1[C@@H](COc2ccccc2CCO)[C@H](O)C[C@H]1Cl [Example 61, (Z)-7-{(1R,2S,3R,5R)-5-Chloro-3-hydroxy-2-[2-(2-hydroxy-ethyl)-phenoxymethyl]-cyclopentyl}-hept-5-enoic acid] | 128 | 3910 | – | 5980 | > 10 |
